In ChEMBL document CHEMBL5728508, “Inhibitors of lysine specific demethylase-1” (2021):

Molecular target: Lysine-specific histone demethylase 1A (Homo sapiens, UniProt O60341)
Assay: In Vitro Enzyme Inhibition Assay: The enzymatic assay of LSD1 activity is based on Time Resolved-Fluorescence Resonance Energy Transfer (TR-FRET) detection. […] Plates were read by EnVision Multilabel Reader in TR-FRET mode (excitation at 320 nm, emission at 615 nm and 665 nm) after 1 hour incubation at room temperature.

- IC50: < 0.1 µM
SMILES: CCn1c(-c2ccc(OC)cc2)c(-c2ccc(C#N)c(F)c2)cc(N2CCC(N)CC2)c1=O
